Assays:
[1] = test system: patient-derived BT3 glioma cells; experiment: 2-Compartment model, orthotopic model; assay type: in vivo, BALB/cOlaHsd-Foxn1^nu mouse
Description: Image analysis was performed using CARIMAS software published and freely distributed by the Turku PET Center (http://turkupetcentre.fi/carimas/). CT scans were used as rough anatomical reference while tumor regions of interest (ROI) were hand-drawn based upon observed spikes of radioactivity in the PET images at locations correlating with recorded tumor grafts. Control muscle ROIs were drawn on the side opposite to the tumor in the leg flank muscle (based on CT) while the blood ROI was drawn based upon heart anatomical location and observed PET image radioactivity spike during the initial 20 s of imaging in the left ventricle. Standardized uptake values (SUV) were calculated with respect to ROI volume, mean and max tumor radioactivity, total injected radioactivity dose (corrected for tail, cannula, and syringe residual radioactivity), and animal weight, and were additionally presented as tumor-to-background ratio (TBR, tumor-to-healthy brain region for intracranial gliomas and tumor-to-muscle for subcutaneous gliomas) as defined by recent glioma research literature standards. Mean and maximum TBR values were reported as ROI radioactivity per volume divided by mean background radioactivity per volume. The blood radioactivity SUV and gender-specific metabolite-corrected blood radioactivity SUV were then applied to multiple pharmacokinetic models to characterize the flux of the tracer (further described in the “Modeling” section).
Using the heart’s left ventricle ROI from the PET data as an uncorrected radioactivity level input and the bioavailable parent-tracer fraction (results: Eqs. 3 and 4 applied to the uncorrected input) as the corrected input, multiple models were investigated to characterize the tissue uptake dynamics. Two-compartment modeling and Logan, Patlak, and Yokoi plots were used to separately model the pharmacokinetics for the gliomas (both subcutaneous and orthotopic loci) and their respective control tissues (healthy muscle and healthy brain, respectively). Where indicated, means plus/minus standard deviations are reported. Difference in parameters for uncorrected versus correct and target tissue versus their respective control regions were tested with students’ paired t tests with P values lower than 0.05 being considered significant.

[2] = In vivo stability analysis, plasma precipitation assay; parameters: species or system C57BL/6J and Foxn1^nu/nu mice; conditions: after 60 min
Description: Tracer in vivo stability studies were performed with 12 mice consisting of two groups; 6 1-year-old male C57BL/6J and 6 3-month-old female Foxn1^nu/nu mice.
Twelve non-tumor-bearing control mice (6 C57BL/6J and 6 Foxn1^nu/nu) were injected with 9–14 MBq of tracer before a 200-μL blood sample was drawn into a heparinized vial and kept on ice. After 15 min, a second sample was collected during animal sacrifice. Whole blood was weighed and measured for radioactivity before being centrifuged at 730×g and 5 °C for 5 min, separated into plasma and blood cell fractions, and then separately weighed and measured. The values were used along with age, gender, and animal model-specific hematocrit values (reported by suppliers) to calculate the plasma radioactivity fraction of the whole-blood radioactivity (Eq. 1):1 Plasma Activity Fraction=Cp/CRBC+Cp=ρpCpHCT/ρbCb−ρpCp1−HCT+ρpCpHCT where C = radioactivity concentration, ρ = density, and HCT = hematocrit. […]
Aliquots of plasma were precipitated with 2.5 × (volume) methanol, vortexed, and centrifuged at 11,000×g for 5 min. The pellet and supernatant fractions were separated and measured for radioactivity to give the radioactivity fraction of the plasma that was trapped or bound to proteins (Eq. 2):2 Unbound plasma fraction=Csup/Cpel+Csup where C = radioactivity of subscripts which denote the following: sup = supernatant and pel = pellet. […]

[3] = Subject A brain (control), arterial blood input
[4] = Subject A brain (control), plasma-corrected input
[5] = Subject A glioma max., arterial blood input
[6] = Subject A glioma max., plasma-corrected input
[7] = Subject A o.t. glioma, arterial blood input
[8] = Subject A o.t. glioma, plasma-corrected input
[9] = Subject B brain (control), arterial blood input
[10] = Subject B brain (control), plasma-corrected input
[11] = Subject B glioma max., arterial blood input
[12] = Subject B glioma max., plasma-corrected input
[13] = Subject B o.t. glioma, arterial blood input
[14] = Subject B o.t. glioma, plasma-corrected input

Structure (SMILES): NC(=O)[C@H]([18F])C[C@H](N)C(=O)O [[^18F]FGln, (2S, 4R)-4-[^18F]fluoroglutamine]
- 2-Compartment K1 [1, 3]: 0.015 mL min-1 mL-1
- 2-Compartment K1/k2 [1, 3]: 0.143 mL mL-1
- 2-Compartment Vb [1, 3]: 7.82%
- 2-Compartment k3 [1, 3]: 0.032 min⁻¹
- 2-Compartment k3*K1/k2 [1, 3]: 0.005
- 2-Compartment k3/(k2+k3) [1, 3]: 0.235
- 2-Compartment K1 [1, 4]: 0.016 mL min-1 mL-1
- 2-Compartment K1/k2 [1, 4]: 0.210 mL mL-1
- 2-Compartment Vb [1, 4]: 7.77%
- 2-Compartment k3 [1, 4]: 0.051 min⁻¹
- 2-Compartment k3*K1/k2 [1, 4]: 0.011
- 2-Compartment k3/(k2+k3) [1, 4]: 0.396
- 2-Compartment K1 [1, 5]: 0.149 mL min-1 mL-1
- 2-Compartment K1/k2 [1, 5]: 1.169 mL mL-1
- 2-Compartment Vb [1, 5]: 20%
- 2-Compartment k3 [1, 5]: 0.015 min⁻¹
- 2-Compartment k3*K1/k2 [1, 5]: 0.018
- 2-Compartment k3/(k2+k3) [1, 5]: 0.105
- 2-Compartment K1 [1, 6]: 0.156 mL min-1 mL-1
- 2-Compartment K1/k2 [1, 6]: 1.769 mL mL-1
- 2-Compartment Vb [1, 6]: 20%
- 2-Compartment k3 [1, 6]: 0.023 min⁻¹
- 2-Compartment k3*K1/k2 [1, 6]: 0.041
- 2-Compartment k3/(k2+k3) [1, 6]: 0.208
- 2-Compartment K1 [1, 7]: 0.116 mL min-1 mL-1
- 2-Compartment K1/k2 [1, 7]: 0.919 mL mL-1
- 2-Compartment Vb [1, 7]: 11.5%
- 2-Compartment k3 [1, 7]: 0.018 min⁻¹
- 2-Compartment k3*K1/k2 [1, 7]: 0.016
- 2-Compartment k3/(k2+k3) [1, 7]: 0.122
- 2-Compartment K1 [1, 8]: 0.123 mL min-1 mL-1
- 2-Compartment K1/k2 [1, 8]: 1.373 mL mL-1
- 2-Compartment Vb [1, 8]: 11.6%
- 2-Compartment k3 [1, 8]: 0.027 min⁻¹
- 2-Compartment k3*K1/k2 [1, 8]: 0.038
- 2-Compartment k3/(k2+k3) [1, 8]: 0.234
- 2-Compartment K1 [1, 9]: 0.017 mL min-1 mL-1
- 2-Compartment K1/k2 [1, 9]: 0.127 mL mL-1
- 2-Compartment Vb [1, 9]: 5.5%
- 2-Compartment k3 [1, 9]: 0.031 min⁻¹
- 2-Compartment k3*K1/k2 [1, 9]: 0.004
- 2-Compartment k3/(k2+k3) [1, 9]: 0.186
- 2-Compartment K1 [1, 10]: 0.018 mL min-1 mL-1
- 2-Compartment K1/k2 [1, 10]: 0.168 mL mL-1
- 2-Compartment Vb [1, 10]: 5.52%
- 2-Compartment k3 [1, 10]: 0.051 min⁻¹
- 2-Compartment k3*K1/k2 [1, 10]: 0.009
- 2-Compartment k3/(k2+k3) [1, 10]: 0.318
- 2-Compartment K1 [1, 11]: 0.102 mL min-1 mL-1
- 2-Compartment K1/k2 [1, 11]: 0.447 mL mL-1
- 2-Compartment Vb [1, 11]: 13.3%
- 2-Compartment k3 [1, 11]: 0.036 min⁻¹
- 2-Compartment k3*K1/k2 [1, 11]: 0.016
- 2-Compartment k3/(k2+k3) [1, 11]: 0.137
- 2-Compartment K1 [1, 12]: 0.111 mL min-1 mL-1
- 2-Compartment K1/k2 [1, 12]: 0.515 mL mL-1
- 2-Compartment Vb [1, 12]: 13.4%
- 2-Compartment k3 [1, 12]: 0.062 min⁻¹
- 2-Compartment k3*K1/k2 [1, 12]: 0.032
- 2-Compartment k3/(k2+k3) [1, 12]: 0.224
- 2-Compartment K1 [1, 13]: 0.061 mL min-1 mL-1
- 2-Compartment K1/k2 [1, 13]: 0.536 mL mL-1
- 2-Compartment Vb [1, 13]: 10.2%
- 2-Compartment k3 [1, 13]: 0.020 min⁻¹
- 2-Compartment k3*K1/k2 [1, 13]: 0.011
- 2-Compartment k3/(k2+k3) [1, 13]: 0.150
- 2-Compartment K1 [1, 14]: 0.063 mL min-1 mL-1
- 2-Compartment K1/k2 [1, 14]: 0.767 mL mL-1
- 2-Compartment Vb [1, 14]: 10.5%
- 2-Compartment k3 [1, 14]: 0.032 min⁻¹
- 2-Compartment k3*K1/k2 [1, 14]: 0.025
- 2-Compartment k3/(k2+k3) [1, 14]: 0.280
- Plasma radioactivity bound to or incorporated into proteins [2]: roughly 25%
